Data: US6482921B1, “Uridyl peptide antibiotic (UPA) derivatives, their synthesis and use” (Essential Therapeutics, Inc., priority 1999, dated 2002)
≈ marks a conversion by molar mass, not a printed value.

What was measured:
Type in all cases: cell-based
[1] = test system: Escherichia Coli MC 4100 AcrAB; assay: MIC broth microdilution, E. coli MC 4100 AcrAB (ΔAcrAB); conditions: E. coli AcrAB
[2] = test system: Staphylococcus aureus 8325-4; assay: MIC broth microdilution, S. aureus 8325-4 (wild type); conditions: S. aureus 8325-4
[3] = test system: Pseudomonas aeruginosa PAM 1154; assay: MIC broth microdilution, P. aeruginosa PAM 1154 (OprM::Hg); conditions: P. aeruginosa PAM 1154 OprM::Hg
[4] = test system: Pseudomonas aeruginosa PAM 1020; assay: MIC broth microdilution, P. aeruginosa PAM 1020 (wild type); conditions: P. aeruginosa PAM 1020
[5] = test system: Pseudomonas aeruginosa PAM 1135; assay: MIC broth microdilution, P. aeruginosa PAM 1135 (high level UPA resistance); conditions: P. aeruginosa PAM 1135 UPA1^r
[6] = test system: Pseudomonas aeruginosa PAM 1323; assay: MIC broth microdilution, P. aeruginosa PAM 1323 (medium level UPA resistance)
Method: Compounds were tested against several panels of bacteria. In a first panel, Table 3, several strains of Pseudomonas aeruginosa, Escherichia coli and Staphylococcus aureus were employed as the target bacteria.
For the bacteria in Table 3, the assay was performed in Mueller-Hinton Broth (MHB) with a final bacterial inoculum of 5×10^5 CFU/ml and a final volume of 100 μl. Control drugs, including imipenem and pacidimycin 4, and the test compounds were prepared at a concentration which was twice the desired final concentration (256 μg/ml). Dilution of the controls and the test compounds was accomplished directly on the test plates by serial 2-fold dilution using a multi-channel pipette. Both a positive and a negative growth control was included in each plate.
The bacterial inocula were prepared as follows. Bacterial strains were grown overnight at 35° C. in MHB. […] The culture was then diluted 1:10 and allowed to grow for an additional one hour at 35° C. in a shaking incubator. The inocula were then prepared by diluting the early log phase (one hour) cultures 1:2000 with fresh MHB. A volume of 50 μl of the inocula was added to each well, resulting in an inoculum of approximately 5×10^5 CFU/ml. The exact inocula were determined by putting 10 μl of 10-fold serial dilution of the bacterial suspensions onto TSA. After overnight incubation at 35° C., colony-forming units were counted manually.
The microtiter plates were incubated for 20 hours at 35° C. and were then read using a microtiterplate reader (Molecular Devices) at 650 nm as well as being visually observed using a microtiterplate reading mirror.

[7] = test system: Pasteurella multocida pm002; assay: MIC broth microdilution, P. multocida pm002 (wild type)
[8] = test system: Escherichia Coli MC 4100 AcrAB UPA3r; assay: MIC broth microdilution, E. coli MC 4100 AcrAB UPA3r (ΔAcrAB, UPA resistant); conditions: E. coli AcrAB UPA3^r
[9] = test system: Staphylococcus aureus ATCC 29213; assay: MIC broth microdilution, S. aureus ATCC 29213 (wild type); conditions: S. aureus ATCC 29213
[10] = test system: Escherichia Coli MC 4100; assay: MIC broth microdilution, E. coli MC 4100 (wild type); conditions: E. coli MC 4100

Structure (SMILES) | MIC (μg/ml) Broth microdilution [1] [µg/mL] | MIC (μg/ml) Broth microdilution [2] [µg/mL] | MIC (μg/ml) Broth microdilution [3] [µg/mL] | MIC (μg/ml) Broth microdilution [4] [µg/mL] | MIC (μg/ml) Broth microdilution [5] [µg/mL] | MIC (μg/ml) Broth microdilution [6] [µg/mL] | MIC (μg/ml) Broth microdilution [7] [µg/mL] | MIC (μg/ml) Broth microdilution [8] [µg/mL] | MIC (μg/ml) Broth microdilution [9] [µg/mL] | MIC (μg/ml) Broth microdilution [10] [µg/mL]
CC(N)C(=O)N(C)C(C)C(NC(=O)C(Cc1ccc(F)cc1)NC(=O)NC(C(=O)O)c1ccccc1)C(=O)NCC1CC(O)C(n2ccc(=O)[nH]c2=O)O1 (mixture of isomers) [Compound 141, 1-[5′-[(2S,3S)-N^3-L-Alanyl-N^2-[N-[[α(R,S)-1-carboxy-phenmethyl]carbamoyl]-L-4-fluorophenylalanyl]-N^3-methyl-2,3-diaminobutyramido]-3′,5′-dideoxy-α-L-arabinofuranosyl]uracil] | 16 | >512 | 512 | >512 | >512 | >512 | >512 | >512 | >512 | >512
CC(N)C(=O)N(C)C(C)C(NC(=O)C(Cc1ccc(F)cc1)NC(=O)NC(C(=O)O)c1ccccc1)C(=O)NCC1CC(O)C(n2ccc(=O)[nH]c2=O)O1 (mixture of isomers) [Compound 142, 1-[5′-[(2S,3S)-N^3-L-Alanyl-N^2-[N-[[α(S,R)-1-carboxy-phenmethyl]carbamoyl]-L-4-fluorophenylalanyl]-N^3-methyl-2,3-diaminobutyramidol-3′,5′-dideoxy-α-L-arabinofuranosyl]uracil] | 4 | >512 | 64 | 512 | >512 | >512 | >512 | 32 | >512 | 512
CC(C(NC(=O)C(Cc1ccccc1)NC(=O)NC(Cc1ccc(O)cc1)C(=O)O)C(=O)NCC1CC(O)C(n2ccc(=O)[nH]c2=O)O1)N(C)C(=O)C(N)Cc1ccccc1 [Compound 100, 1-[5′-[(2S,3S)-N^2-[N-[[(1S)-1-Carboxy-4-hydroxyphenethyl]carbamoyl]-L-phenylalanyl]-N^3-L-phenylalanyl-N^3-methyl-2,3-diaminobutyramido]-3′,5′-dideoxy-α-L-arabinofuranosyl]uracil] | <1 | 512 (≈ 607 µM) | 8 (≈ 9.49 µM) | 32 (≈ 38 µM) | >512 | >512 | 256 (≈ 304 µM) | 2 (≈ 2.37 µM) | >512 | 8 (≈ 9.49 µM)
CC(C)CC(N)C(=O)N(C)C(C)C(NC(=O)C(Cc1ccccc1)NC(=O)NC(Cc1ccc(O)cc1)C(=O)O)C(=O)NCC1CC(O)C(n2ccc(=O)[nH]c2=O)O1 [Compound 101, 1-[5′-[(2S,3S)-N^2-[N-[[(1S)-1-Carboxy-4-hydroxyphenethyl]carbamoyl]-L-phenylalanyl]-N^3-L-leucyl-N^3-methyl-2,3-diaminobutyramido]-3′,5′-dideoxy-α-L-arabinofuranosyl]uracil] | 2 (≈ 2.47 µM) | >512 | 8 (≈ 9.89 µM) | 128 (≈ 158 µM) | >512 | >512 | >512 | 128 (≈ 158 µM) | >512 | >512
CC(C(NC(=O)C(Cc1ccccc1)NC(=O)NC(Cc1ccc(O)cc1)C(=O)O)C(=O)NCC1CC(O)C(n2ccc(=O)[nH]c2=O)O1)N(C)C(=O)CN [Compound 102, 1-[5′-[(2S,3S)-N^2-[N-[[(1S)-1-Carboxy-4-hydroxyphenethyl]carbamoyl]-L-phenylalanyl]-N^3-glycyl-N^3-methyl-2,3-diaminobutyramido]-3′,5′-dideoxy-α-L-arabinofuranosyl]uracil] | <1 | 512 (≈ 680 µM) | 8 (≈ 10.6 µM) | 32 (≈ 42.5 µM) | >512 | 512 (≈ 680 µM) | 256 (≈ 340 µM) | 16 (≈ 21.3 µM) | >512 | 512 (≈ 680 µM)
CSCCC(NC(=O)NC(Cc1ccc(O)cc1)C(=O)O)C(=O)NC(C(=O)NCC1CC(O)C(n2ccc(=O)[nH]c2=O)O1)C(C)N(C)C(=O)CN [Compound 104, 1-[5′[(2S,3S)-N^2-(N-[[(1S)-1-Carboxy-4-hydroxyphenethyl]carbamoyl]-L-methionyl]-N^3-glycyl-N^3-methyl-2,3-diaminobutyramidol-3′,5′-dideoxy-α-L-arabinofuranosyl]uracil] | 16 (≈ 21.7 µM) | >512 | 4 (≈ 5.43 µM) | 32 (≈ 43.4 µM) | >512 | <512 | 256 (≈ 347 µM) | 128 (≈ 174 µM) | >512 | <512
CC(C(NC(=O)C(Cc1ccc(F)cc1)NC(=O)NC(Cc1ccc(O)cc1)C(=O)O)C(=O)NCC1CC(O)C(n2ccc(=O)[nH]c2=O)O1)N(C)C(=O)C(N)Cc1ccc(F)cc1 [Compound 105, 1-[5′[(2S,3S)-N^2-[N-[[(1S)-1-Carboxy-4-hydroxyphenethyl]carbamoyl]-L-4-fluorophenylalanyl]-N^3-L-4-fluorophenylalanyl-N^3-methyl-2,3-diaminobutyramido]-3′,5′-dideoxy-α-L-arabinofuranosyl]uracil] | 16 (≈ 18.2 µM) | >512 | 64 (≈ 72.8 µM) | 256 (≈ 291 µM) | 256 (≈ 291 µM) | 256 (≈ 291 µM) | 512 (≈ 583 µM) | 512 (≈ 583 µM) | >512 | 512 (≈ 583 µM)
CC(C)CC(N)C(=O)N(C)C(C)C(NC(=O)C(Cc1ccc(F)cc1)NC(=O)NC(Cc1ccc(O)cc1)C(=O)O)C(=O)NCC1CC(O)C(n2ccc(=O)[nH]c2=O)O1 [Compound 107, 1-[5′[(2S,3S)-N^2-[N-[[(1S)-1-Carboxy-4-hydroxyphenethyl]carbamoyl]-L-4-fluorophenylalanyl]-N^3-L-leucyl-N^3-methyl-2,3-diaminobutyramido]-3′,5′-dideoxy-α-L-arabinofuranosyl]uracil] | <1 | >512 | 64 (≈ 77.4 µM) | 256 (≈ 310 µM) | >512 | >512 | >512 | 8 (≈ 9.67 µM) | >512 | 16 (≈ 19.3 µM)
CC(C)CC(N)C(=O)N(C)C(C)C(NC(=O)C(CC(C)C)NC(=O)NC(Cc1c[nH]c2ccccc12)C(=O)O)C(=O)NCC1CC(O)C(n2ccc(=O)[nH]c2=O)O1 [Compound 108, 1-[5′[(2S,3S)-N^2-[N-[[(1S)-1-Carboxy-2-indol-3-ylethyl]carbamoyl]-L-leucyl]-N^3-L-leucyl-N^3-methyl-2,3-diaminobutyramido]-3′,5′-dideoxy-α-L-arabinofuranosyl]uracil] | <1 | >512 | 32 (≈ 40.1 µM) | 256 (≈ 321 µM) | >512 | 512 (≈ 642 µM) | 512 (≈ 642 µM) | 16 (≈ 20.1 µM) | >512 | 256 (≈ 321 µM)
